Values after ≈ are worked out from the molar mass of the structure shown. Where a name gives a salt, the structure may show the parent alone. Read-outs that look alike come from different tables or passages of the source.
How the values were obtained:
[1] = tested on: Propionibacterium acnes NCTC 737; experiment: MIC/MBC 96-well plate broth micro-dilution assay; type: cell-based; settings: for MBC / MIC: Cutibacterium acnes
Experimental: The anaerobic cutaneous propionibacteria e.g. Propionibacterium acnes are implicated in the pathogenesis of acne vulgaris. The test organism Propionibacterium acnes is classified as a ‘Type’ strain for the species. […] MIC determinations were carried out using a standard 96-well plate broth micro-dilution assay. Wilkins-Chalgren anaerobe broth at pH 6 and pH 7.1±0.2 was used for P. acnes. […] The test range for the control compounds varied depending on known activity levels. […] Benzoyl peroxide and erythromycin were used as control compounds in P. acnes assays. Benzoyl peroxide and erythromycin were both dissolved in ethanol.

[2] = tested on: sebum production; experiment: Sebum production study in healthy male volunteers (Sebumeter); type: in vivo; settings: for Sebum Production Maximum % Reduction LS Means: compared to placebo, healthy male volunteers
Experimental: The study examined the effects of oxybutynin on sebum production in 9 healthy male volunteers. This was double-blind, randomised, placebo-controlled dose study
The subjects were assessed on each dosing occasion for sebum production pre-dose and 1 h, 2.5 h, 4 h and 6 h post-dose. Skin sebum excretion rates were determined using a Sebumeter® (Optical measurement of sebum excretion using opalescent film imprint, 2006, Handbook of non-invasive methods and the skin, Second Edition). Vital signs were recorded at specified times during each study period and adverse events were reported throughout.
For each subject, the maximum % reduction in sebum production compared to placebo was calculated for each dose level. Using this information, a mixed effects regression analysis of the % reduction in sebum versus dose with subject as a random effect was performed.

[3] = NCTC737, pH 6, Wilkins-Chalgren agar, mean of minimum 4 replicates, read-out: MBC
[4] = NCTC737, pH 6, Wilkins-Chalgren anaerobe broth, mean of minimum 4 replicates, read-out: MIC
[5] = NCTC737, pH 7.1 ± 0.2, Wilkins-Chalgren agar, mean of minimum 4 replicates, read-out: MBC
[6] = NCTC737, pH 7.1 ± 0.2, Wilkins-Chalgren anaerobe broth, mean of minimum 4 replicates, read-out: MIC

Row | SMILES | MBC [1, 3] | MIC [1, 4] | MBC [1, 5] | MIC [1, 6] | Antimicrobial activity against P. acnes (in words) ([1]; pH 6) | Antimicrobial activity against P. acnes (in words) ([1]; pH 7.1±0.2) | also measured
1 | O=C(OOC(=O)c1ccccc1)c1ccccc1 [Benzoyl peroxide] | – | – | – | – | – | – | MBC ([1]; NCTC737, pH 6): 62.5 µg/mL (≈ 258 µM); MIC ([1]; NCTC737, pH 6): 31.2 µg/mL (≈ 129 µM); MBC ([1]; NCTC737, pH 7.1): 62.5 µg/mL (≈ 258 µM); MIC ([1]; NCTC737, pH 7.1): 31.2 µg/mL (≈ 129 µM)
2 | NC(=O)C(c1ccccc1)(c1ccccc1)[C@@H]1CCN(CCc2ccc3c(c2)CCO3)C1 [Darifenacin hydrobromide, darifenacin hydrobromide] | 1000 µg/mL | 500 µg/mL | 500 µg/mL | 500 µg/mL | some moderate antimicrobial activity | some moderate antimicrobial activity | –
3 | CC[C@H]1OC(=O)[C@H](C)[C@@H](O[C@H]2C[C@@](C)(OC)[C@@H](O)[C@H](C)O2)[C@H](C)[C@@H](O[C@@H]2O[C@H](C)C[C@H](N(C)C)[C@H]2O)[C@](C)(O)C[C@@H](C)C(=O)[C@H](C)[C@@H](O)[C@]1(C)O [Erythromycin] | > 2.5 µg/mL | 0.63 µg/mL (≈ 0.858 µM) | > 2.5 µg/mL | 0.313 µg/mL (≈ 0.426 µM) | – | – | –
4 | CCN(CC)CC#CCOC(=O)C(O)(c1ccccc1)C1CCCCC1 (stereo not shown) [Oxybutynin chloride, oxybutynin chloride] | 1000 µg/mL | 500 µg/mL | 500 µg/mL | 500 µg/mL | some moderate antimicrobial activity | some moderate antimicrobial activity | –
5 | CCN(CC)CC#CCOC(=O)C(O)(c1ccccc1)C1CCCCC1 (stereo not shown) [oxybutynin] | – | – | – | – | – | – | Sebum Production Maximum % Reduction LS Means ([2]; dose 1 mg): 21.59%; Sebum Production Maximum % Reduction LS Means ([2]; dose 2 mg): −16.94%; Sebum Production Maximum % Reduction LS Means ([2]; dose 5 mg): −34.74%; Sebum Production Maximum % Reduction LS Means ([2]; dose 10 mg): −75.52%; Effect on sebum production (in words) ([2]; following administration of 2 mg, 5 mg and 10 mg): decreased with dose

— patent US20100184727A1, “TREATMENT OF EXCESS SEBUM PRODUCTION” (SUMMIT (CAMBRIDGE) LIMITED, priority 2006, published 2010)
